According to ChEMBL document CHEMBL1154007, “Discovery and development of aurora kinase inhibitors as anticancer agents” (J Med Chem, 2009):
Where a name gives a salt, the structure may show the parent alone. Each block holds one compound with its values, some of them ahead of it.

Experiments:
Aurora kinase B [1] = biological target: T1, Aurora kinase B (Homo sapiens, UniProt Q96GD4); assay: Inhibition of aurora B in human SW620 cells assessed as inhibition of histone H3 phosphorylation; assay type: cell-based, SW-620
T1 sequence (Q96GD4 whole entry): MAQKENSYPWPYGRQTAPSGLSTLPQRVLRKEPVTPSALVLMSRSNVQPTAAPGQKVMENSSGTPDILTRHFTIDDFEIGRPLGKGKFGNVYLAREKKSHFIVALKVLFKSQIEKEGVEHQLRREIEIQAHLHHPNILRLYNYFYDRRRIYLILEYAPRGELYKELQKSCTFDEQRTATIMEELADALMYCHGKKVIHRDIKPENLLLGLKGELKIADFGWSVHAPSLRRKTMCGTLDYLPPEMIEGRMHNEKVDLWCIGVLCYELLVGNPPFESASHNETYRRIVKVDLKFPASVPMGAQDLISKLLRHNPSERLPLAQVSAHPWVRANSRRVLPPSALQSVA

Aurora kinase A = biological target: T2, Aurora kinase A (Homo sapiens, UniProt O14965)
T2 sequence (O14965 whole entry): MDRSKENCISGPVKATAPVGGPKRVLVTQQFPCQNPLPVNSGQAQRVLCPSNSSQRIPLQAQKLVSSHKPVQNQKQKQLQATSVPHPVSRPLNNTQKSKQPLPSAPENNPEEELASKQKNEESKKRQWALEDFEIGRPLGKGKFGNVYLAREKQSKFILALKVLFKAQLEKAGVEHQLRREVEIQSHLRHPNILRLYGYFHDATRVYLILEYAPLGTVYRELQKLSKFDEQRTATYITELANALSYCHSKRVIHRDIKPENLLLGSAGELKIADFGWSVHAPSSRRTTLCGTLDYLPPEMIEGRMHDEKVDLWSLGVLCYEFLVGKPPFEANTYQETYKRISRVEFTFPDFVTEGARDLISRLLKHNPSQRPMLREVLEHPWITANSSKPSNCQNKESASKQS

Aurora kinase B [2] = biological target: T1, Aurora kinase B; assay: Inhibition of aurora B kinase
[3] = biological target: Proto-oncogene tyrosine-protein kinase Src (Homo sapiens, UniProt P12931); assay: Inhibition of Src
Proto-oncogene tyrosine-protein kinase Src, sequence (P12931 2-536 limits assumed): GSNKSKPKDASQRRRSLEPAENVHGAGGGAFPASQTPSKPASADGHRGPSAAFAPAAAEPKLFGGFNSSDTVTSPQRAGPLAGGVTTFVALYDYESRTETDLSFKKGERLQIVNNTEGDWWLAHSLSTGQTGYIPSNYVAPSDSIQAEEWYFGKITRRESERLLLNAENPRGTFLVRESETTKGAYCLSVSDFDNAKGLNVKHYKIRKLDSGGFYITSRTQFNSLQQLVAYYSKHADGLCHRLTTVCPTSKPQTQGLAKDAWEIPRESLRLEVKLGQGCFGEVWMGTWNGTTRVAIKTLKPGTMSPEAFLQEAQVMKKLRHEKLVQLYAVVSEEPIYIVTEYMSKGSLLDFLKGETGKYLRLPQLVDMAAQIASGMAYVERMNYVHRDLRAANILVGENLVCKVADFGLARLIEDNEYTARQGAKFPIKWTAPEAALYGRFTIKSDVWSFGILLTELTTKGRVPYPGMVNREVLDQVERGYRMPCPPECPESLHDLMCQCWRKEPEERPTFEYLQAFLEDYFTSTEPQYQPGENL

[4] = biological target: Glycogen synthase kinase-3 beta (Homo sapiens, UniProt P49841); assay: Inhibition of Gsk3beta
Glycogen synthase kinase-3 beta, sequence (P49841 whole entry): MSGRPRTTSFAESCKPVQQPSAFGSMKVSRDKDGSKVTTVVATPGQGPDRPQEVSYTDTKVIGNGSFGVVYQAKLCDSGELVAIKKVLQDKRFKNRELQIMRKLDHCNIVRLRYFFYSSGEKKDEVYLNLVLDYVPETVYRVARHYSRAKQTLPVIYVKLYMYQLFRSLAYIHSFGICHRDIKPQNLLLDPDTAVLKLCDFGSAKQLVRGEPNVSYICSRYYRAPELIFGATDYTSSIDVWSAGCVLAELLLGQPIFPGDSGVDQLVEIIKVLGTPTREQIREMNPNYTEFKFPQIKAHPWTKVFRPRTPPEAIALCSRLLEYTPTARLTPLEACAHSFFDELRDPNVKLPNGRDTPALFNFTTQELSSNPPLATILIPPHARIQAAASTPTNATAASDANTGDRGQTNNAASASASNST

COLO 205 = assay: Antiproliferative activity against human COLO205 cells assessed as inhibition of thymidine uptake after 96 hrs; assay type: functional, cell-based; details: COLO 205, 96 h
HCT-116 = assay: Antiproliferative activity against human HCT116 cells assessed as BrdU incorporation after 72 hrs; assay type: functional, cell-based; details: HCT-116, 72 h
[5] = Aqueous solubility at pH 7.4; assay type: physicochemical
[6] = Half life in iv dosed rat; assay type: ADME, organism-based; details: in vivo
Rattus norvegicus = species: Rattus norvegicus; assay: Antitumor activity in rat assessed as inhibition of tumor volume; assay type: functional
[7] = Toxicity in po dosed rat assessed at maximum tolerated dose after 2 weeks; assay type: organism-based; details: in vivo
[8] = Bioavailability in […] rat; assay type: ADME, organism-based; details: in vivo
[9] = Volume of distribution at steady state in iv dosed rat; assay type: ADME, organism-based; details: in vivo, read-out: Vdss
[10] = Clearance in iv dosed rat; assay type: ADME, organism-based; details: in vivo
[11] = biological target: Tyrosine-protein kinase Lck (Homo sapiens, UniProt P06239); assay: Inhibition of Lck
Tyrosine-protein kinase Lck, sequence (P06239 whole entry): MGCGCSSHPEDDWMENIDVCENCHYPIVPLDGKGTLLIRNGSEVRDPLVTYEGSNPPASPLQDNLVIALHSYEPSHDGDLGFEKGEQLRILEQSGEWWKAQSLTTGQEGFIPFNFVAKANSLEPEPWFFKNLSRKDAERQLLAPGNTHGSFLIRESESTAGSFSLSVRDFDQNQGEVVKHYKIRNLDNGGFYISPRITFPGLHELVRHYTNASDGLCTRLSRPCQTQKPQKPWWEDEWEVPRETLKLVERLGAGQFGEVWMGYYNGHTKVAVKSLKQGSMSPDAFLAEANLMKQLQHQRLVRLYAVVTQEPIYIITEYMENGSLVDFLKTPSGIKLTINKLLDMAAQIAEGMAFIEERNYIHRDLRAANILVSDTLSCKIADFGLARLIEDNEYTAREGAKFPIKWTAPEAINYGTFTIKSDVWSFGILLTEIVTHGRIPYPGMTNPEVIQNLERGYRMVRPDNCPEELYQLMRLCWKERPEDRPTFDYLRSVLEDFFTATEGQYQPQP

Aurora kinase C = biological target: T3, Aurora kinase C (Homo sapiens, UniProt Q9UQB9); assay: Inhibition of aurora C kinase
T3 sequence (Q9UQB9 whole entry): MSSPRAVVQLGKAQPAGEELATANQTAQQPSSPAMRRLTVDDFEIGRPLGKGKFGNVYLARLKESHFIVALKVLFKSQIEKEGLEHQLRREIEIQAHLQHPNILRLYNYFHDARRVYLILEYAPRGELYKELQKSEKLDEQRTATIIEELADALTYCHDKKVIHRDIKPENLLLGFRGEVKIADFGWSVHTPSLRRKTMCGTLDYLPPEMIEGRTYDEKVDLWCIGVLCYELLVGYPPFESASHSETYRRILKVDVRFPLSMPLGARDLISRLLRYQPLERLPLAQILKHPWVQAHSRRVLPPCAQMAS

[12] = Volume of distribution in iv infused tumor bearing mouse; assay type: ADME, organism-based; details: in vivo
[13] = Clearance in iv infused tumor bearing mouse; assay type: ADME, organism-based; details: in vivo
[14] = Elimination half life in iv infused tumor bearing mouse; assay type: ADME, organism-based; details: in vivo, read-out: beta t1/2 (converted)
A2780 = assay: Antiproliferative activity against human A2780 cells assessed as accumulation of 4N DNA; assay type: functional, cell-based
[15] = Drug level in tumor bearing mouse plasma at 30 mg/kg after 24 hrs; assay type: ADME, organism-based; design: dose 30 mg/kg; details: read-out: Activity
[16] = Drug level in tumor bearing mouse tumor at 30 mg/kg after 24 hrs; assay type: ADME, organism-based, Neoplasm; design: dose 30 mg/kg; details: read-out: Activity
Homo sapiens = assay: Drug elimination in human patient after 5 days of iv infusion; assay type: ADME, organism-based; details: in vivo, 120 h

solubility [5]: 5.4 µM
IC50 (Aurora kinase A): 1.7 nM
IC50 (COLO 205): 135 nM
IC50 (Aurora kinase B [2]): 14 nM
SMILES: CCC(=O)Nc1ccc(Sc2nc(Nc3cc(C)n[nH]3)cc(N3CCOCC3)n2)cc1

solubility [5]: 296 µM
IC50 (Aurora kinase A): 3.7 nM
IC50 (COLO 205): 79 nM
IC50 (Aurora kinase B [2]): 18 nM
SMILES: CCC(=O)Nc1ccc(Sc2nc(Nc3cc(C)n[nH]3)cc(N3CCNCC3)n2)cc1

solubility [5]: 221 µM
IC50 (Aurora kinase A): 1.3 nM
IC50 (COLO 205): 2 nM
IC50 (Aurora kinase B [2]): 11 nM
SMILES: CCC(=O)Nc1ccc(Sc2nc(Nc3cc(C)n[nH]3)cc(N3CCN(C(C)(C)C)CC3)n2)cc1

IC50 (Aurora kinase A): 182 nM
IC50 (Aurora kinase B [2]): 530 nM
SMILES: COc1cc2c(Nc3nc(C(=O)Nc4ccccc4)cs3)ncnc2cc1OCCCN1CCOCC1

solubility [5]: 63.4 µM
IC50 (Aurora kinase A): 1.6 nM
IC50 (COLO 205): 24 nM
IC50 (Aurora kinase B [2]): 20 nM
SMILES: CCC(=O)Nc1ccc(Sc2nc(Nc3cc(C)[nH]n3)cc(N3CCN(C)CC3)n2)cc1

solubility [5]: 2.5 µg/mL
IC50 (Aurora kinase A): 1.6 nM
IC50 (COLO 205): 400 nM
IC50 (Aurora kinase B [2]): 8 nM
SMILES: CCC(=O)Nc1ccc(Sc2nc(Nc3cc(C)n[nH]3)cc(N3CCCCC3)n2)cc1

solubility [5]: 12.8 µM
IC50 (Aurora kinase A): < 1 nM
IC50 (COLO 205): 75 nM
IC50 (Aurora kinase B [2]): 9.5 nM
SMILES: CCC(=O)Nc1ccc(Sc2nc(Nc3cc(C)n[nH]3)cc(N3CCN(C4CC4)CC3)n2)cc1

solubility [5]: 114 µM
IC50 (Aurora kinase A): < 1 nM
IC50 (COLO 205): 24 nM
IC50 (Aurora kinase B [2]): 25 nM
SMILES: CCC(=O)Nc1ccc(Sc2nc(Nc3cc(C)n[nH]3)cc(N3CCN(CC)CC3)n2)cc1

IC50 (HCT-116): 570 nM
SMILES: CN1CCN(c2ccc(C(=O)Nc3n[nH]c4c3CN(C(=O)Cc3cccs3)C4)cc2)CC1

IC50 (Aurora kinase A): < 1 nM
IC50 (Aurora kinase B [2]): < 1 nM
SMILES: COc1cc2c(Nc3ncc(CC(=O)Nc4ccccc4)s3)ncnc2cc1OCCCN1CCOCC1

half-life [6]: 5 h
clearance [10]: 14 mL/min/kg
SMILES: CCN(CCCOc1ccc2c(Nc3cc(CC(=O)Nc4cccc(F)c4)n[nH]3)ncnc2c1)CCOP(=O)(O)O [BARASERTIB]

IC50 (Aurora kinase C): 65 nM
SMILES: Cc1nc(N)sc1-c1ccnc(Nc2ccc(N3CCOCC3)cc2)n1 [CYC-116]

Activity (Homo sapiens): 75%
SMILES: Cc1cc(Nc2cc(N3CCN(C)CC3)nc(Sc3ccc(NC(=O)C4CC4)cc3)n2)[nH]n1 [TOZASERTIB]

Second part, the compound before the results:

SMILES: CCN(CCO)CCCOc1cc2ncnc(Nc3cc(CC(=O)Nc4cccc(F)c4F)[nH]n3)c2cc1OC
IC50 (Aurora kinase B [1]): 45 nM
IC50 (Aurora kinase A): 360 nM
IC50 (Aurora kinase B [2]): < 1 nM

SMILES: CCN(CCO)CCCOc1cc2ncnc(Nc3cc(CC(=O)Nc4cccc(F)c4)[nH]n3)c2cc1OC
IC50 (Aurora kinase B [1]): 270 nM
IC50 (Aurora kinase A): 190 nM
IC50 (Aurora kinase B [2]): 1 nM

SMILES: CCN(CCO)CCCOc1ccc2c(Nc3cc(CC(=O)Nc4cccc(F)c4F)[nH]n3)ncnc2c1
IC50 (Aurora kinase A): 800 nM
IC50 (Aurora kinase B [2]): 7.5 nM

SMILES: COc1cc2c(Nc3cc(CC(=O)Nc4cccc(F)c4F)[nH]n3)ncnc2cc1OCCCN(CCO)CC(C)C
IC50 (Aurora kinase B [1]): < 1 nM
IC50 (Aurora kinase A): 18 nM
IC50 (Aurora kinase B [2]): < 1 nM

SMILES: CCCN(CCO)CCCOc1cc2ncnc(Nc3cc(CC(=O)Nc4cccc(F)c4)[nH]n3)c2cc1OC
IC50 (Aurora kinase B [1]): 290 nM
IC50 (Aurora kinase A): 220 nM
IC50 (Aurora kinase B [2]): 2 nM

SMILES: Cc1cc(Nc2nc(-c3ccccc3)nc3ccccc23)n[nH]1
Ki [3]: 81 nM
Ki [4]: 22 nM
Ki (Aurora kinase A): 58 nM
IC50 (COLO 205): 1400 nM

SMILES: COc1cc2c(Nc3cnc(NC(=O)c4ccccc4)nc3)ncnc2cc1OCCCN1CCOCC1
IC50 (Aurora kinase B [2]): 1 nM

SMILES: O=C(Nc1cccc(C(F)(F)F)c1)Nc1ncc(CCNc2ncnc3ccsc23)s1
EC50 (HCT-116): 13 nM

SMILES: O=C(Nc1ccccc1)Nc1ncc(CCNc2ncnc3ccsc23)s1
EC50 (HCT-116): 45 nM

SMILES: COc1cc2c(Nc3ncc(C(=O)Nc4ccccc4)s3)ncnc2cc1OCCCN1CCOCC1
IC50 (Aurora kinase A): 4 nM
IC50 (Aurora kinase B [2]): 42 nM

SMILES: CC(C)(C)c1ccc(C(=O)Nc2n[nH]c3c2CN(C(=O)Cc2cccs2)C3)cc1
IC50 (HCT-116): 2000 nM

SMILES: CC(=O)Nc1ccc(Sc2nc(Nc3cc(C)n[nH]3)c3ccccc3n2)cc1
Ki [3]: 1260 nM
Ki [4]: 1030 nM
Ki (Aurora kinase A): 4 nM
IC50 (COLO 205): 480 nM
half-life [6]: 1 h
Ki (Aurora kinase B [2]): 27 nM
inhibition (INH) (Rattus norvegicus): 50%
MTD at 336 h [7]: 300 mg/kg
bioavailability [8]: 44%
Vd [9]: 0.38 L/kg
clearance [10]: 7 mL/min

SMILES: COc1cc2c(Nc3ccc(C(=O)Nc4ccccc4)s3)ncnc2cc1OCCCN1CCOCC1
IC50 (Aurora kinase A): 11 nM
IC50 (Aurora kinase B [2]): 57 nM

SMILES: COc1cc(Nc2ncc3c(n2)-c2ccc(Cl)cc2C(c2c(F)cccc2OC)=NC3)ccc1C(=O)O [ALISERTIB]
IC50 [11]: 320 nM

SMILES: O=C(Nc1c[nH]nc1-c1nc2cc(CN3CCOCC3)ccc2[nH]1)NC1CC1 [AT-9283]
IC50 (Aurora kinase B [2]): 3 nM

SMILES: CO[C@@H](C(=O)N1Cc2n[nH]c(NC(=O)c3ccc(N4CCN(C)CC4)cc3)c2C1)c1ccccc1 [DANUSERTIB]
Vd [12]: 2.7 L/kg
clearance [13]: 28.3 mL/min/kg
half-life [14]: 3.7 h
IC50 (A2780): 28000 nM

SMILES: O=C(O)c1ccc(Nc2ncc3c(n2)-c2ccc(Cl)cc2C(c2c(F)cccc2F)=NC3)cc1 [MLN-8054]
concentration at 24 h [15]: > 1000 nM
concentration at 24 h [16]: > 2000 nM

SMILES: O=C(Nc1cccc(Cl)c1)Nc1ncc(CCNc2ncnc3ccsc23)s1 [SNS-314 MESYLATE]
EC50 (HCT-116): 6 nM
